Data as given in patent publication US12298306B2, “Marker for identifying patients with gliobastoma who respond positively to the drug regorafenib” (ISTITUTO ONCOLOGICO VENETO IOV-IRCCS, priority 2018, dated 2025).

Tests used:
[1] = tested on: glioblastoma; experiment: REGOMA randomized, controlled, phase II clinical trial, survival by pACC Ser79 marker status; format: in vivo, patients
Procedure: Once all samples of the REGOMA trial which are available for the translational study (Table 1) have been stained, the biostatistics and clinical trial team of IOV (Mr. De Salvo—doctor) performed a statistical analysis to evaluate the possible prognostic or predictive meaning of the response of pACC^Ser79.
To evaluate the prognostic role of pACC^Ser79, an analysis was carried out according to the Cox model, considering pACC^Ser79 as an independent variable and dividing the patient samples into positive and negative (as reported above), and survival, being both free from disease progression and as a whole, as a dependent variable.
To evaluate the predictive role of pACC^Ser79, the variable of the treatment received by the patient was added to the Cox model (in particular, according to a randomized assignment, the patient received Regorafenib or Lomustine) in addition to the interaction factor of received treatment*status of the marker pACC^Ser79 (positive/negative).

[2] = tested on: glioblastoma at diagnosis; conditions: in association with standard treatment; cited from earlier work

| Compound | benefit from treatment in patients with neoplastic tissue positive to pACC Ser79 ([1]; Cox model with treatment*marker interaction, comparator Lomustine) | survival after second-line treatment in patients whose tumor samples express pACC Ser79 ([1]; pACC Ser79 positive tumor samples, second-line treatment, REGOMA) | PFS [2] | quality of life [2] | survival (OS) [2] |
| --- | --- | --- | --- | --- | --- |
| CNC(=O)c1cc(Oc2ccc(NC(=O)Nc3ccc(Cl)c(C(F)(F)F)c3)c(F)c2)ccn1 [Regorafenib] | most benefited | longer survival |  |  |  |
| bevacizumab |  |  | improved | improved | no significant survival advantages |
